# In patent US20040023386A1, “Modulation of nitric oxide synthase by PKC” (Joslin Diabetes Center, Inc., a Massachusetts corporation, priority 2000, published 2004):
# Key:
# eNOS mRNA [1] = assay: eNOS mRNA level in BAECs (Northern blot); assay type: cell-based, bovine
# Procedure: (§1) Bovine aortic endothelial cells (BAECs) from passages 4 to 10 were isolated. Confluent cells were placed in DMEM containing 1% platelet-deprived horse serum (PDHS) for 24 hours before being studied and pretreated with the following inhibitors: phosphatidylinositol-3 (PI-3) kinase-selective inhibitors wortmannin (Sigma Chemical Co) and LY294002 (BIOMOL Research Laboratories), protein kinase C (PKC) activator phorbol-12-myristate-13-acetate (PMA) (Sigma Chemical Co), general PKC inhibitor GF109203X (GFX) (Calbiochem-Novabiochem Corp), and PKCβ isoform-selective inhibitor LY333531 (Lilly Inc). Cells were then stimulated with insulin (Sigma Chemical Co), recombinant insulin-like growth factor-1 (IGF-1) (Upstate Biotechnology), and LPC (Avanti Polar Lipid) or alpha-IR3 antibodies.
# (§2) Total RNA from cultured BAECs, PKCβ1-overexpressed BAECs, and vascular stroma from the epididymal fat pads of Zucker rats were isolated according to the guanidinium thiocyanate-phenol-chloroform method with TRI Reagent (Molecular Research Center) and solution D containing 4 mol/L guanidinium thiocyanate, 25 mmol/L sodium citrate, pH 7.0, 0.5% sarcosyl, and 0.1 mol/L 2-mercaptoethanol. Total RNA (20 μg) was fractionated and hybridized to 650-bp cDNA fragments of rat eNOS (kindly provided by Dr Mark A. Perella and Arthur M. E. Lee, Harvard School of Public Health, Boston, Mass.), which were labeled with the use of a DNA labeling system (Multiprime; Amersham Corp). The quantification of eNOS mRNA levels was performed with a PhosphorImager (Molecular Dynamics) and normalized to 36B4 mRNA.
# eNOS protein = assay: Immunoblot analysis of eNOS protein in BAECs; assay type: cell-based, bovine
# Procedure: as §1
# Cells were washed 3 times with ice-cold PBS, pH 7.4, lysed in 50 mmol/L Tris, pH 7.5, 2 mmol/L EDTA, 0.5 mmol/L EGTA, 2 mmol/L PMSF, 25 μg/mL leupeptin, 0.1 mg/mL aprotinin, 1 mmol/L dithiothreitol, 50 mmol/L NaF, and 1% Triton X-100 (Sigma Chemical Co); scraped from the dish; rotated for 1 hour at 4° C.; and centrifuged for 15 minutes at 14 000 g. Protein concentrations of the supernatant were measured according to the method of Bradford and separated with the use of 6% SDS-PAGE. The membrane was incubated for 1 hour with polyclonal anti-human eNOS antibody (Transduction Laboratories) diluted in PBS containing 0.1% Tween-20 and 1% BSA, washed 3 times for 10 minutes with PBS containing 0.1% Tween-20, and incubated with 0.1 μCi/ML ^125I-protein A (Amersham Life Science, Inc). Protein levels of eNOS were quantified with a PhosphorImager.
# [2] = test system: IRS-2-associated PI-3 kinase; assay: Assay of IRS-2-associated PI-3 kinase activity in BAECs; assay type: cell-based, bovine
# Procedure: After preincubation with or without 100 nmol/L PMA for 30 minutes, BAECs were stimulated with insulin (100 nmol/L) for 5 minutes. Cells were processed as described previously for this assay. Aliquots of proteins from the supernatant were immunoprecipitated with 10 μL/ml anti-alpha-insulin receptor substrates (IRS)-2 antibodies (kindly provided by Dr Morris F. White, Joslin Diabetes Center, Boston, Mass) for 2 hours and bound to protein A-Sepharose beads at 4° C. as described previously. The lipids were quantified with a PhosphorImager.
# NOS activity = assay: Assay of NOS activity in BAECs; assay type: cell-based, bovine; settings: insulin 100 nmol/L
# Procedure: The amount of NOS activity produced by BAECs was measured by using an NOS Detect assay kit (Transduction Laboratories) according to the manufacturer's instructions. Briefly, BAECs were harvested in PBS containing 1 mmol/L EDTA and centrifuged at 12 000 g. The pellets were lysed in homogenization buffer containing 25 mmol/L Tris, pH 7.4, 1 mmol/L EDTA, and 1 mmol/L EGTA and centrifuged at 12 000 g. Aliquots from the supernatant were used for the measurement of NOS activity through the conversion of [^3H]L-arginine to [^3H]L-citrulline. Data were normalized by the amount of protein and reaction time.
# eNOS mRNA [3] = assay: eNOS mRNA level in human umbilical endothelial cells; assay type: cell-based; settings: IGF-1 25 nmol/L
# eNOS mRNA [4] = assay: eNOS mRNA level in vascular stroma from epididymal fat pads of Zucker rats; assay type: cell-based; settings: insulin 100 nmol/L, 6 hours
# Procedure: Vascular stromas were obtained from the epididymal fat pads of 12-week-old Zucker lean and fatty rats (Harlan Sprague Dawley, Inc). Epididymal fat pads were isolated, minced, and incubated with 0.2% collagenase I for 30 minutes at 37° C. Then, they were fractionated with the use of a Dounce homogenizer and centrifuged at 3000 g for 20 minutes to isolate vessels from adipocytes. Vascular stroma were washed with DMEM containing 0.2% BSA and incubated with DMEM containing 0.2% BSA with or without insulin for 6 hours at 37° C. T he purity of the isolated vascular stroma was quantified through immunohistochemical staining with anti-factor VIII antibody and through immunoblotting of the stroma with antibodies to smooth muscle cell alpha-actin. Only preparations that were stained positively in more than 90% of the vessels were used.
# Total RNA from cultured BAECs, PKCβ1-overexpressed BAECs, and vascular stroma from the epididymal fat pads of Zucker rats were isolated according to the guanidinium thiocyanate-phenol-chloroform method with TRI Reagent (Molecular Research Center) and solution D containing 4 mol/L guanidinium thiocyanate, 25 mmol/L sodium citrate, pH 7.0, 0.5% sarcosyl, and 0.1 mol/L 2-mercaptoethanol. […] The quantification of eNOS mRNA levels was performed with a PhosphorImager (Molecular Dynamics) and normalized to 36B4 mRNA.
# eNOS mRNA [5] = assay: eNOS mRNA level in adenovirus-infected BAECs (PKCβ1 or β-Gal); assay type: cell-based, bovine; settings: for increase of eNOS mRNA levels: LPC 100 μmol/L
# Procedure: The construction of a replication-deficient recombinant adenovirus for PKCβ1 expression was performed as described in Becker et al. Methods Cell Biol. 1994;43:161-189. Adenovirus-mediated gene transfer to confluent BAECs was performed through a 1-hour adenoviral infection of 10^9 pfu/mL at 37° C. in DMEM containing 10% PDHS. The infected BAECs were then incubated in DMEM containing 1% PDHS for 24 hours, incubated with or without insulin (100 nmol/L) for an additional 6 hours, and harvested. AdV-CMV-PKCβ1- or β-galactosidase (β-Gal)-infected BAECs were assessed for PKC activity and protein expression as previously described.
# as §2
compound,measurement,setting,value
"CN(C)CCCn1cc(C2=C(c3c[nH]c4ccccc34)C(=O)NC2=O)c2ccccc21 [GFX, reference compound]",increase of eNOS mRNA expression,"eNOS mRNA [1]; GFX 5 μmol/L without insulin, 6 hours",38±10%
same,increase of eNOS mRNA expression compared with control cells,eNOS mRNA [1]; both insulin and GFX,76±20%
"O=c1cc(N2CCOCC2)oc2c(-c3ccccc3)cccc12 [LY294002, reference compound]",decrease of basal eNOS protein level,eNOS protein; LY294002 50 nmol/L,72±5%
same,decrease of basal eNOS mRNA expression,"eNOS mRNA [1]; LY294002 50 nmol/L, without insulin treatment",30±4%
"CN(C)C[C@@H]1CCn2cc(c3ccccc32)C2=C(C(=O)NC2=O)c2cn(c3ccccc23)CCO1 [LY333531, reference compound]",increase of eNOS mRNA expression,eNOS mRNA [1]; LY333531 20 nmol/L,60±14%
"CCCCCCCCCCCCCC(=O)O[C@@H]1[C@@H](C)[C@@]2(O)[C@@H](C=C(CO)C[C@]3(O)C(=O)C(C)=C[C@@H]23)[C@@H]2C(C)(C)[C@]12OC(C)=O [PMA, phorbol-12-myristate-13-acetate, reference compound]",effect on insulin-induced IRS-2-associated PI-3 kinase activity,[2]; PMA 100 nmol/L preincubation 30 minutes,mostly inhibited
same,basal PI-3 kinase activity,[2]; PMA treatment,not changed
same,increase of eNOS mRNA expression,"eNOS mRNA [1]; PMA 100 nmol/L, 12 hours",66±11%
same,increase of eNOS mRNA expression,"eNOS mRNA [1]; PMA 100 nmol/L, 24 hours",105±14%
same,change of eNOS mRNA level,"eNOS mRNA [1]; PMA 100 nmol/L, initial 6 hours",did not change
same,remaining effect of insulin on eNOS mRNA levels after PMA preincubation,"eNOS mRNA [1]; preincubated with PMA for 30 minutes, then insulin",14±13%
"COC[C@H]1OC(=O)c2coc3c2[C@@]1(C)C1=C(C3=O)[C@@H]2CCC(=O)[C@@]2(C)C[C@H]1OC(C)=O [wortmannin, reference compound]",insulin-induced NOS activity after preincubation with inhibitor,NOS activity; wortmannin 100 nmol/L preincubation for 15 minutes,123±13 pmol/mg protein min
IGF-1: recombinant insulin-like growth factor-1 (Upstate Biotechnology),increase of eNOS mRNA level,eNOS mRNA [3],47±10%
"insulin: insulin (Sigma Chemical Co), used to stimulate endothelial cells",increase of IRS-2-associated PI-3 kinase activity,"[2]; insulin 100 nmol/L, 5 minutes",5.4±0.4 fold
same,NOS activity,NOS activity; after 24 hours,176±7 pmol/mg protein min
same,increase of eNOS mRNA levels,eNOS mRNA [4]; vascular stroma from Zucker lean rats,50±16%
same,effect on eNOS mRNA levels,eNOS mRNA [4]; vascular stroma from insulin-resistant (Zucker fatty) rats,ineffective
same,increase of eNOS protein level,"eNOS protein; insulin 100 nmol/L, Example 2",74±9%
same,increase of eNOS protein levels,"eNOS protein; insulin, 6 hours",43±16%
same,maximum increase of eNOS protein levels,"eNOS protein; insulin, 24 hours, maintained for 36 hours",2 fold
same,enhancement of eNOS mRNA expression,"eNOS mRNA [5]; insulin 100 nmol/L, BAECs with or without adenovirus containing only β-Gal",≤ 2 fold
same,change of eNOS mRNA levels,"eNOS mRNA [5]; insulin, cells infected with adenovirus containing the PKCβ1 isoform",did not increase
same,concentration at which maximal effect on eNOS mRNA level was attained,eNOS mRNA [1],< 100 nmol/L
same,response of eNOS mRNA expression,eNOS mRNA [1]; insulin 0.1 nmol/L,significant increase
same,increase of eNOS mRNA level,eNOS mRNA [1]; insulin 10 nmol/L,50±12%
same,maximum effect on eNOS mRNA level (dose response),eNOS mRNA [1]; insulin 100 nmol/L,2 fold
same,increase of eNOS mRNA expression,"eNOS mRNA [1]; insulin 100 nmol/L, 1 hour",33±9%
same,increase of eNOS mRNA expression,"eNOS mRNA [1]; insulin 100 nmol/L, 6 hours",71±21%
same,maximum increase of eNOS mRNA expression,"eNOS mRNA [1]; insulin 100 nmol/L, 12 hours, maintained for 24 hours",2 fold
same,increase of eNOS mRNA level compared with control,"eNOS mRNA [1]; insulin 100 nmol/L, Example 2",58±20%
lysophosphatidylcholine [LPC],increase of eNOS mRNA levels,eNOS mRNA [5]; adenovirus-containing β-Gal cells,4.5 fold
same,increase of eNOS mRNA levels,eNOS mRNA [5]; control cells,5 fold
same,increase of eNOS mRNA,"eNOS mRNA [5]; LPC, BAECs infected with the adenoviral-PKCβ1 isoform",4 fold
